Publication PMC11489206, “Transport of perfluoroalkyl substances across human induced pluripotent stem cell-derived intestinal epithelial cells in comparison with primary human intestinal epithelial cells and Caco-2 cells” (Archives of Toxicology, 2024)
Like-named read-outs stand apart in the source and are kept apart here. Marks after values point to notes of the source that are not given here.

Tests used:
Caco-2 model = settings: cited from earlier work
[1] = ref Ayehunie et al. (2005); cited from earlier work
hiPSC-derived IEC layers = test system: hiPSC-derived IEC layers; design: method as in Kabeya et al. ([2020]); settings: apical to basolateral, ref Kabeya et al. ([2020]); cited from earlier work
[2] = Transport study across Caco-2 cell layers; settings: human, Caco-2
Description: Human colorectal adenocarcinoma cells (Caco-2, HTB-37) were obtained from American Type Culture Collection (ATCC, Manassas, VA). Cells were cultured in a humidified incubator (37°C, 5% CO2) in Dulbecco’s modified Eagle’s medium (DMEM) supplemented with 10% heat-inactivated fetal bovine serum (Gibco, Thermo Fisher Scientific, Waltham, MA), 1% non-essential amino acids (Gibco) and 1% penicillin/streptomycin (Sigma). For experiments, Caco-2 cells below passage number 50 were used within 10 passages. They were harvested at 80% confluence using Trypsin/EDTA (0.25%/0.05%; PAN Biotech, Aidenbach, Germany) and seeded at a density of 4 × 10^5 cells/cm^2 into inserts with a polycarbonate membrane (0.4 µm pore, Corning, New York, NY). After 21 days of differentiation (using 500 µl cell culture medium in the apical and 1500 µl in the basolateral compartment), monolayer integrity was determined by measuring transepithelial electrical resistance (TEER) with a Millicell ERS Volt-Ohm meter (Millipore, Bedford, MA).
(§1) Transport studies were performed in Caco-2 cells, hiPSC-derived IECs and EpiIntestinal microtissues. To that end, Caco-2 cell layers were differentiated for 21 days and hiPSCs were differentiated into IEC layers for 26 days, as described above. EpiIntestinal microtissues were subjected to transport studies 1 day after arrival. […] For all models, PFAS transport was assessed in apical to basolateral, and basolateral to apical direction using HBSS containing a mixture of PFASs containing 1 µM of each PFAS. See Supplementary Data for a detailed description of the method used for the transport studies of the model compounds and PFASs.
(§2) Prior to exposure to the transport study compounds, the cells were washed with transport medium (HBSS; Sigma). […] 100 µL aliquots were collected from the basolateral compartment and replaced with the same volume HBSS at settled time points (0, 15, 30 and 60 min). For basolateral to apical transport in the EpiIntestinal microtissues, 0.2 mL HBSS was added to the apical compartment and 0.5 mL HBSS containing a mixture of PFASs containing 1 µM of each PFAS, was added to the basolateral compartment. 100 µL aliquots were collected from the apical compartment and replaced with the same volume of HBSS at settled time points (0, 15, 30 and 60 min). For apical to basolateral transport across the Caco-2 cell layers and hiPSC-derived IEC layers, 1.2 mL HBSS was added to the basolateral compartment and 0.4 mL HBSS containing either model compounds (10 µM) or a mixture of PFASs containing 1 µM of each PFAS, was added to the apical compartment. 100 µL aliquots were collected from the basolateral compartment and replaced with the same volume of HBSS at settled time points (0, 7.5, 15, 30 and 60 min for the model compounds with both models and the PFASs with the hiPSC-derived IEC layers and 0, 15, 30 and 60 min for PFASs with the Caco-2 cell layers). For basolateral to apical transport, 0.4 mL HBSS was added to the apical compartment and 1.2 mL HBSS containing 10 µM of the model compounds or a mixture of PFASs containing 1 µM of each PFAS, was added to the basolateral compartment. 100 µL aliquots were collected from the apical compartment and replaced with the same volume of HBSS at settled time points (0, 7.5, 15, 30 and 60 min for the model compounds with both models and the PFASs with the hiPSC-derived IEC layers and 0, 15, 30 and 60 min for PFASs with the Caco-2 cell layers). After 60 minutes, all liquid was collected from the apical and basolateral compartment and the cells were lysed in 200 µL RIPA buffer (Thermo Fisher Scientific), and chemicals were quantified in the different compartments (apical, basolateral and cells) in order to calculate the mass balance.
(§3) The apparent permeability coefficient (Papp, cm/s) was calculated using the following equation: […]

EpiIntestinal model = settings: apical to basolateral, ref Ayehunie et al. (2005); cited from earlier work
[3] = Transport study across hiPSC-derived IEC layers; settings: human
Description: For differentiation into IECs, definitive endoderm cells were subsequently differentiated into intestinal stem cells by changing medium into DMEM/F12 containing 2% fetal bovine serum, 1% GlutaMAX (Gibco) and 250 ng/ml FGF2 (R&D Systems). After 4 days, cells were dissociated using Accutase and seeded onto polyester Transwell inserts (0.4 µm, Corning) coated with Growth Factor Reduced Matrigel #356231. Cells were cultured for 7 days in intestinal differentiation medium (DMEM/F-12 containing 2% fetal bovine serum, 1% non-essential amino acids (Gibco), 1 × B27 (Gibco), 1 × N2 (Gibco), 1% penicillin/streptomycin (Gibco) and 2 mM L-glutamine (Gibco)) supplemented with 20 ng/ml EGF (R&D Systems) and 30 µM Forskolin (Sigma). ROCK inhibitor, y-27632 (final concentration 10 µM; Stem Cell Technologies), was added during the initial 24 h after seeding to reduce cell death. The cells were subsequently cultured for 12 days in intestinal differentiation medium supplemented with 20 ng/ml EGF, 30 µM Forskolin, 5 µM 5-aza-2′-deoxycytidine (Sigma), 20 µM PD98059 (Stem Cell Technologies) and 0.5 µM A-83–01 (Sigma). The medium was refreshed every 2–3 days. Barrier integrity was determined by measuring apical to basolateral translocation of Lucifer yellow (see Supplementary Data for a detailed description).
as §1
as §2, with “layers).” for “layers). After 60 minutes, all liquid was collected from the apical and basolateral compartment and the cells were lysed in 200 µL RIPA buffer (Thermo Fisher Scientific), and chemicals were quantified in the different compartments (apical, basolateral and cells) in order to calculate the mass balance.”

[4] = Transport study across EpiIntestinal microtissues; settings: human
Description: The human EpiIntestinal small intestinal microtissues, consisting of epithelial cells and an underlying lamina propria containing intestinal fibroblasts, were obtained from MatTek Life Sciences (Ashland, USA). Cell culture inserts (8.8 mm ID) were placed in 12-well plates and cells were maintained in 100 µl maintenance medium (MatTek Life Sciences) in the apical compartment and 5 ml maintenance medium in the basolateral compartment upon arrival. The transport studies were performed 1 day after arrival.
as §1, §2, §3
where A is the surface area (cm^2), dQ is the amount of the compound transported (nmol) over the respective time interval dt (s) and C0 is the initial concentration in the donor compartment (µM).

| SMILES | Average Papp A - B (Caco-2 model; ref Ayehunie et al. 2018) | Average Papp A - B (Caco-2 model; ref Kabeya et al. 2020) | Fa (fraction absorbed in humans) [1] | Average Papp A–B (hiPSC-derived IEC layers) | Papp A→B at 60 min, 10 µM [2] | Papp B→A at 60 min, 10 µM [2] | efflux ratio at 60 min, 10 µM [2] | Average Papp A–B (EpiIntestinal model) | Papp A→B at 60 min, 10 µM [3] | Papp B→A at 60 min, 10 µM [3] | efflux ratio at 60 min, 10 µM [3] | Papp A→B at 60 min, 1 µM [4] | Papp B→A at 60 min, 1 µM [4] | efflux ratio at 60 min, 1 µM [4] | Papp A→B at 60 min, 1 µM [2] | Papp B→A at 60 min, 1 µM [2] | efflux ratio at 60 min, 1 µM [2] | Papp A→B at 60 min, 1 µM [3] | Papp B→A at 60 min, 1 µM [3] | efflux ratio at 60 min, 1 µM [3] | also measured |
| --- | --- | --- | --- | --- | --- | --- | --- | --- | --- | --- | --- | --- | --- | --- | --- | --- | --- | --- | --- | --- | --- |
| CCCC(=O)Nc1ccc(OCC(O)CNC(C)C)c(C(C)=O)c1 (stereo not drawn) [Acebutolol, acebutolol] | 0.4 ×10⁻⁶ cm/s | 0.35 ×10⁻⁶ cm/s | 40% | 2.35 ± 0.88 × 10^–6 cm/s | 0.42 ± 0.03 ×10⁻⁶ cm/s | 3.09 ± 0.07 ×10⁻⁶ cm/s | 7.37 | 0.4 ± 0.1^a × 10^–6 cm/s | 1.95 ± 0.02 ×10⁻⁶ cm/s | 7.17 ± 0.27 ×10⁻⁶ cm/s | 3.67 | – | – | – | – | – | – | – | – | – | Average Papp A - B (Caco-2 model; ref Liang et al. 2000): 0.51 ×10⁻⁶ cm/s; Average Papp A - B (Caco-2 model; ref Yazdanian et al. 1998): 0.51 ×10⁻⁶ cm/s |
| CC(C)NCC(O)COc1ccc(CC(N)=O)cc1 (stereo not drawn) [Atenolol, atenolol] | – | – | 50% | – | – | – | – | – | – | – | – | – | – | – | – | – | – | – | – | – | – |
| CCOC(=O)[C@H](CCc1ccccc1)N[C@@H](C)C(=O)N1CCC[C@H]1C(=O)O [Enalapril, enalapril] | 0.2 ×10⁻⁶ cm/s | 0.19 ×10⁻⁶ cm/s | 40% | 1.93 ± 0.46 × 10^–6 cm/s | 0.28 ± 0.04 ×10⁻⁶ cm/s | 0.43 ± 0.05 ×10⁻⁶ cm/s | 1.55 | 0.4 ± 0.2^a × 10^–6 cm/s | 2.95 ± 0.41 ×10⁻⁶ cm/s | 3.68 ± 0.1 ×10⁻⁶ cm/s | 1.25 | – | – | – | – | – | – | – | – | – | Average Papp A - B (Caco-2 model; ref Grès et al. 1998): 0.62 ×10⁻⁶ cm/s; Average Papp A - B (Caco-2 model; ref Logoyda et al. 2018): 1.31 ×10⁻⁶ cm/s |
| O=S(=O)(O)C(F)(F)C(F)(F)C(F)(F)C(F)(F)C(F)(F)C(F)(F)F [PFHxS, perfluorohexane sulfonate] | – | – | – | – | – | – | – | – | – | – | – | 12.5 ± 0.78 ×10⁻⁶ cm/s | 14.1 ± 0.67 ×10⁻⁶ cm/s | 1.13 | 8.78 ± 1.76 ×10⁻⁶ cm/s | 11.6 ± 0.2 ×10⁻⁶ cm/s | 1.33 | 3.95 ± 0.47 ×10⁻⁶ cm/s | 6.71 ± 0.43 ×10⁻⁶ cm/s | 1.7 | – |
| O=C(O)C(F)(F)C(F)(F)C(F)(F)C(F)(F)C(F)(F)C(F)(F)C(F)(F)C(F)(F)F [PFNA, perfluorononanoic acid] | – | – | – | – | – | – | – | – | – | – | – | 8.48 ± 0.57 ×10⁻⁶ cm/s | 7.51 ± 0.5 ×10⁻⁶ cm/s | 0.89 | 4.55 ± 0.56 ×10⁻⁶ cm/s | 3.14 ± 0.33 ×10⁻⁶ cm/s | 0.69 | 1.95 ± 0.27 ×10⁻⁶ cm/s | 2.88 ± 0.28 ×10⁻⁶ cm/s | 1.48 | – |
